Among the data in the supplement of paper PMC11061612 are Bliss excess values, retold here.

What all share (experiment): Bliss excess, mean over the matrix (fraction); higher = more synergy
In test [1] the test system is CAL-62 (Thyroid Gland Carcinoma). The procedure, abridged: (§1)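 Cell lines grown in DMEM/F12 or RPMI with 10% FBS were plated in 1536-well plates and held 24 hours at 37°C, 5% CO2 before 72 hours of exposure to two-drug dose matrices, with DMSO typically at 0.2%. CellTiter-Glo 2.0 luminescence gave viability, which was converted to inhibition. Vehicle wells were set to 0 and blank wells to 1. Combination Emax is the second-highest inhibition in the matrix, and Bliss excess is the observed combination effect minus the expected EA + EB − EA·EB, where EA and EB are the single-agent effects.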

In test [2] the test system is COLO-680N (Esophageal Squamous Cell Carcinoma). The procedure, abridged: as §1
Test [3] relates to FADU (Head and Neck Carcinoma). A digest of the protocol:
as §1

Test [4] has as its system GP5d (Colorectal Carcinoma). A digest of the protocol:
as §1

For test [5], the system named is HEC-1 (Endometrial Carcinoma). A digest of the protocol:
as §1

Test [6] has as its system KE-37 (T-Lymphoblastic Leukemia). A digest of the protocol: as §1
Test [7] concerns LB996-RCC (Kidney Carcinoma). A digest of the protocol:
as §1

Test [8] deals with LK-2 (Squamous Cell Lung Carcinoma). A digest of the protocol: as §1
The test system of the next test is LN-229 (Glioblastoma). A digest of the protocol: as §1
Test [9] concerns MKN45 (Gastric Carcinoma). A digest of the protocol:
as §1

The test system of test [10] is NCI-H446 (Small Cell Lung Carcinoma). A digest of the protocol:
as §1

For test [11], the system named is OAW-42 (Ovarian Carcinoma). A digest of the protocol: as §1
Test [12] relates to PANC-03-27 (Pancreatic Carcinoma). A digest of the protocol: as §1
For test [13], the system named is PSN1 (Pancreatic Carcinoma). The procedure, abridged: as §1
Test [14] has as its system REH (B-Lymphoblastic Leukemia). The procedure, abridged: as §1
The subject of test [15] is RERF-LC-Sq1 (Squamous Cell Lung Carcinoma). A digest of the protocol: as §1
The test system of test [16] is RKN (Other Solid Carcinomas). A digest of the protocol: as §1
Test [17] concerns SHP-77 (Small Cell Lung Carcinoma). The procedure, abridged:
as §1

Test [18] relates to TE-8 (Esophageal Squamous Cell Carcinoma). A digest of the protocol:
as §1

Test [19] deals with MFE-280 (Endometrial Carcinoma). The procedure, abridged:
as §1

With `Cc1c2c(nn1C)CSCc1cc(n(C)n1)CSc1cc(c3ccccc3c1)OCCCc1c(C(=O)O)n(C)c3c-2c(Cl)ccc13` [AZD5991] + Cc1cc2ncnn2cc1Nc1ncc2c(n1)n(C1CCOCC1)c(=O)n2C [AZD7648] (first compound max 1 µM, 7x7, partner max 10 µM), the Bliss excess was -0.0187 in test [1]; -0.0177 in test [2]; -0.0003 in test [3]; -0.0338 in test [4]; -0.0375 in test [5]; -0.0059 in test [6]. The Bliss excess in test [7] is -0.0662; in test [8] it was 0.0019; in the test on LN-229 (Glioblastoma), -0.0525; in [9], -0.0528; in [10] it was 0.0148; in test [11] it was -0.0419. The Bliss excess in test [12] is -0.0286; in [13], -0.0628; in [14], -0.0082; in [15] it was -0.0088; in test [16], -0.0151; in [17] it was -0.0359. Also, the Bliss excess in [18] is -0.069.

For the compound `COc1nnc2ccc(N3CCC(c4ccc(OCCN5CCN(C)C(=O)[C@H]5C)cc4)CC3)nn12` [AZD5153] + CCN(CCO)CCCOc1ccc2c(Nc3cc(CC(=O)Nc4cccc(F)c4)[nH]n3)ncnc2c1 [AZD2811] (first compound max 1 µM, 7x7, partner max 1 µM), the Bliss excess in test [1] is -0.0497; in [2] it was -0.0833; in test [3] it was -0.0529; in test [4] it was -0.082; in test [5], -0.0176; in test [6] it was -0.0085. Also, the Bliss excess in test [7] is -0.106; in test [8] it was -0.282; with LN-229 (Glioblastoma), 0.0112; in [19] it was -0.0343; in test [9], -0.01; in test [10] it was -0.0481. Also, the Bliss excess in test [11] is -0.0491; in test [12], -0.0487; in test [13] it was 0.0384; in test [14], -0.0891; in [15], 0.0063; in test [16], -0.0286. In addition, the Bliss excess was -0.0325 in [17] and -0.0152 in [18].

For `CN(CCO)CC[C@H](CSc1ccccc1)Nc1ccc(S(=O)(=O)NC(=O)c2ccc(N3CCC([C@@H](O)c4ccccc4-c4ccc(Cl)cc4)CC3)cc2)cc1S(=O)(=O)C(F)(F)F` [AZD4320] + C=CCn1c(=O)c2cnc(Nc3ccc(N4CCN(C)CC4)cc3)nc2n1-c1cccc(C(C)(C)O)n1 [AZD1775] (first compound max 1 µM, partner max 1 µM), the Bliss excess in test [1] is 0.0035; in [2], 0.0065; in [3], 0.0213; in test [4], -0.0238; in [5] it was 0.0194; in test [6], 0.0578. The Bliss excess in test [7] was 0.0405; in test [8], 0.0105; in the test with LN-229 (Glioblastoma), 0.0438; in test [19] it was 0.0823; in [10] it was 0.0462; in [11], 0.0074. The Bliss excess in [12] is 0.0079; in test [13] it was -0.0112; in [14], 0.0738; in test [15], -0.0021; in test [16] it was -0.0357; in [17] it was 0.0877. The Bliss excess in test [18] was determined as 0.0378.

On to `Cc1c2c(nn1C)CSCc1cc(n(C)n1)CSc1cc(c3ccccc3c1)OCCCc1c(C(=O)O)n(C)c3c-2c(Cl)ccc13` [AZD5991] + CN(C)CCCOc1ccc(-c2ccc3ncc4c(c3c2)n(C2CCOCC2)c(=O)n4C)cn1 [AZD0156] (first compound max 1 µM, 7x7, partner max 1 µM), for which the Bliss excess is -0.0061 in test [1]; 0.0049 in test [2]; 0.0409 in [3]; -0.0201 in test [4]; -0.0025 in test [5]; 0.0257 in test [6]. In addition, the Bliss excess in test [7] was -0.0569; in test [8] it was 0.0039; in the test with LN-229 (Glioblastoma) it was 0.0024; in test [19] it was -0.0159; in test [9], -0.0594; in test [10], 0.052. Besides, the Bliss excess in test [11] was 0.0454; in test [12], -0.0201; in test [14], -0.0321; in [15], 0.0372; in [16] it was 0.0006; in test [17], -0.0033. Also, in [18], the Bliss excess was -0.0172.

Regarding `CN(CCO)CC[C@H](CSc1ccccc1)Nc1ccc(S(=O)(=O)NC(=O)c2ccc(N3CCC([C@@H](O)c4ccccc4-c4ccc(Cl)cc4)CC3)cc2)cc1S(=O)(=O)C(F)(F)F` [AZD4320] + Cn1cnc2c(F)c(Nc3ccc(Br)cc3Cl)c(C(=O)NOCCO)cc21 [Selumetinib] (first compound max 1 µM, 7x7, partner max 3 µM), the Bliss excess in test [1] was -0.0051; in test [2], 0.0047; in [3], 0.183; in test [4] it was 0.0908; in test [5], -0.018; in [6], 0.0464. Besides, the Bliss excess in [7] was -0.0445; in [8] it was -0.0134; in the test with LN-229 (Glioblastoma), 0.0585; in test [19], -0.0211; in test [9], -0.0725; in test [10] it was -0.0039. For the same compound, the Bliss excess is -0.0115 in [11]; 0.0406 in test [12]; 0.0043 in [13]; -0.0369 in test [14]; 0.0158 in [15]; 0.0307 in test [16]. In addition, the Bliss excess in [17] is 0.0429; in test [18] it was -0.0628.

Consider `NC1(C(=O)N[C@@H](CCO)c2ccc(Cl)cc2)CCN(c2ncnc3[nH]ccc23)CC1` [Capivasertib] + CCN(CCO)CCCOc1ccc2c(Nc3cc(CC(=O)Nc4cccc(F)c4)[nH]n3)ncnc2c1 [AZD2811] (first compound max 10 µM, 7x7, partner max 1 µM), for which the Bliss excess in test [1] was 0.0437; in test [2] it was -0.0009; in test [3] it was -0.0125; in test [4], -0.0899; in test [5] it was 0.016; in [6], 0.0084. The Bliss excess is -0.0146 in test [7]; -0.0303 in [8]; -0.0413 in the test on LN-229 (Glioblastoma); -0.0112 in [19]; 0.0383 in test [9]; -0.0168 in test [10]. Besides, the Bliss excess in test [11] was 0.0291; in test [12], -0.0068; in [13], -0.0309; in [14], -0.0591; in test [15] it was 0.0072; in test [16] it was -0.0711. Moreover, the Bliss excess in test [17] is -0.0208; in test [18], -0.0406.

With `Cc1c2c(nn1C)CSCc1cc(n(C)n1)CSc1cc(c3ccccc3c1)OCCCc1c(C(=O)O)n(C)c3c-2c(Cl)ccc13` [AZD5991] + C[C@@H]1COCCN1C2=NC(=NC(=C2)C3(CC3)[S@](=N)(=O)C)C4=C5C=CNC5=NC=C4 [AZD6738] (first compound max 1 µM, 7x7, partner max 10 µM), the Bliss excess stood at 0.0278 in [1]; 0.0186 in test [2]; 0.0284 in test [3]; 0.002 in test [4]; 0.0258 in [5]; 0.0338 in [6]. Besides, the Bliss excess was 0.0301 in [7]; 0.0146 in [8]; 0.0344 in the test on LN-229 (Glioblastoma); 0.0388 in test [19]; -0.0812 in test [9]; 0.0708 in [10]. The Bliss excess in [11] was 0.0046; in test [12], 0.0059; in test [13], -0.0143; in test [14], -0.0519; in test [15], 0.0273; in test [16] it was 0.0098. Moreover, the figures for the Bliss excess in test [17] and in test [18] were -0.0048 and 0.0197, respectively.
